Test results taken from patent US20050107386A1, “Methods of treating diseases and disorders by targeting multiple kinases” (priority 2003, published 2005).

Columns and labels:
Conditions in all cases: 3 μM; percent of control kinase activity
[1] = target: CDK3/cyclinE(h) (Homo sapiens, UniProt Q00526); test: CDK3/cyclinE(h) kinase assay; format: biochemical
Protocol: (§1) Six compounds (presumptive single agents) were tested against a panel of 50 kinases. The results are presented in Table 2; numbers for each kinase indicate the percent of control kinase activity in the presence of a 3μM concentration of the indicated agent.
(§2) Agents that target two or more different kinases are useful in the methods of the invention as described elsewhere herein. Such compounds may be identified, and their effect on certain kinases may be identified, using the assays briefly described below in Examples 4-83. Each of these assays was carried out as described in Davies et al., Biochem. J., 351:95-105 (2000). All assays were carried out at 10 μM ATP unless otherwise noted.
(§3) In a final reaction volume of 25 μl, CDK3/cyclinE (h) (5-10 mU) is incubated with 8 mM MOPS pH 7.0, 0.2 mM EDTA, 0.1 mg/ml histone H1, 10 mM MgAcetate and [γ-^33P-ATP] (specific activity approx. 500 cpm/pmol, concentration as required). The reaction is initiated by the addition of Mg^2+ [γ-^33P-ATP]. After incubation for 40 minutes at room temperature, the reaction is stopped by the addition of 5 μl of a 3% phosphoric acid solution. 10 μl of the reaction is then spotted onto a P30 filtermat and washed three times for 5 minutes in 75 mM phosphoric acid and once in methanol prior to drying and scintillation counting.

[2] = target: Lyn(h) (Homo sapiens, UniProt P07948); test: Lyn(h) kinase assay; format: biochemical
Lyn(h), sequence (P07948 2-512 limits assumed): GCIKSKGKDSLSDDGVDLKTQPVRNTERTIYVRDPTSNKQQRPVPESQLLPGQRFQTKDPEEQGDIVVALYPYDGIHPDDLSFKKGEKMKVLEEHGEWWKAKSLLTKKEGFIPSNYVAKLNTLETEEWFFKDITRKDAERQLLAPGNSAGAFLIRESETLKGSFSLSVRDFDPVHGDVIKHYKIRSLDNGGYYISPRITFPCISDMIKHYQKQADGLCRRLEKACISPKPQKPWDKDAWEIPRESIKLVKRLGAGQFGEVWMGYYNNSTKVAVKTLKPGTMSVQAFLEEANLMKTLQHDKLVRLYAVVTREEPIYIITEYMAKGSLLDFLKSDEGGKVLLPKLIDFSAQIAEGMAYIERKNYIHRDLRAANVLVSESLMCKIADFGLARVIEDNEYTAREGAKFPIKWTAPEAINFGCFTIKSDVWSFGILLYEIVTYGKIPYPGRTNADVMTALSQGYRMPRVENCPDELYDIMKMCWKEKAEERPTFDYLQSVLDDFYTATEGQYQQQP

[3] = system: AMPK(r); test: AMPK(r) kinase assay; format: biochemical, rat
Protocol: as §1, §2
as §3, with “AMPK(r)” for “CDK3/cyclinE (h)”, “50” for “8”, “Hepes” for “MOPS”, “7.4, 1” for “7.0, 0.2”, “DTT, 0.02% Brij-35, 200 μM AMP, 200 μM […] (SEQ ID NO:4),” for “EDTA, 0.1 mg/ml histone H1,”, “(Specific” for “(specific”

[4] = target: Rsk3(h) (Homo sapiens, UniProt Q15349); test: Rsk3(h) kinase assay; format: biochemical
Rsk3(h), sequence (Q15349 whole entry): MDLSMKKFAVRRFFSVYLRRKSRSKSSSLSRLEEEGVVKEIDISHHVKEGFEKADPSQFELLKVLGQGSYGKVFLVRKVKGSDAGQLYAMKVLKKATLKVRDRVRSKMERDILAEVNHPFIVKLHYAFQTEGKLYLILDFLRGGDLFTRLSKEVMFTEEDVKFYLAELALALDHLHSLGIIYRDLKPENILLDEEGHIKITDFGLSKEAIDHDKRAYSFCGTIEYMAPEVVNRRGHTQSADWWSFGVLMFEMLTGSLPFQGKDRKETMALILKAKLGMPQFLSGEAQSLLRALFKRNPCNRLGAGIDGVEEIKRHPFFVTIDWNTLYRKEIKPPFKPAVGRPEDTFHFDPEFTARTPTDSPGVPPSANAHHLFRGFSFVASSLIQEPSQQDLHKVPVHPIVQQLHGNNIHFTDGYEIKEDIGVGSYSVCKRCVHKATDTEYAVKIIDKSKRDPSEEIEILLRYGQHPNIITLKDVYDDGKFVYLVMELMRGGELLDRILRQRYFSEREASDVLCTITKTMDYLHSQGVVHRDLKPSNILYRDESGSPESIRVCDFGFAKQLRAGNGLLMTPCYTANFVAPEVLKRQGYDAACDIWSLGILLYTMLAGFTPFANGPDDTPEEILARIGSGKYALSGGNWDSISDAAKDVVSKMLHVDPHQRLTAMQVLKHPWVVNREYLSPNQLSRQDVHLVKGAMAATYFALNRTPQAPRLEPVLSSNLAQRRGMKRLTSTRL
Protocol: as §1, §2
as §3, with “Rsk3” for “CDK3/cyclinE”, “30 μM […] (SEQ ID NO:11),” for “0.1 mg/ml histone H1,”

[5] = target: T1, PRAK(h) (Homo sapiens, UniProt Q8IW41); test: PRAK(h) kinase assay; format: biochemical
T1 sequence (Q8IW41 1-473): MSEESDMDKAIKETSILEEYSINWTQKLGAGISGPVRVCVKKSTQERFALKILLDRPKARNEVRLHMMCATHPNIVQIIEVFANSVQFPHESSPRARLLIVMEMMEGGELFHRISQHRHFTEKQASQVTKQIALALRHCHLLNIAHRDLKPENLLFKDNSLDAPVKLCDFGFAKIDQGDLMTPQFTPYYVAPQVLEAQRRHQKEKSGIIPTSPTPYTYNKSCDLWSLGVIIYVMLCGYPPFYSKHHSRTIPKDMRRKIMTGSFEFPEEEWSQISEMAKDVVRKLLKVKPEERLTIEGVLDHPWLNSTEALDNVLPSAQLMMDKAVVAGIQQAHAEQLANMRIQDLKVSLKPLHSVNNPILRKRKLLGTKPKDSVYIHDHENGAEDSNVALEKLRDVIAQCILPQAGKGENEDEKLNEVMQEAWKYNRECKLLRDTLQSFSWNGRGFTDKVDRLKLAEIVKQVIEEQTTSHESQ
Protocol: as §1, §2
as §3, with “PRAK” for “CDK3/cyclinE”, “50” for “8”, “Na-β-glycerophosphate” for “MOPS”, “7.5, 0.1” for “7.0, 0.2”, “EGTA, 30 μM […] (SEQ ID NO11),” for “EDTA, 0.1 mg/ml histone H1,”, “50” for “75”

[6] = target: PDGFRα(h) (Homo sapiens, UniProt P16234); test: PDGFRα(h) kinase assay; format: biochemical
PDGFRα(h), sequence (P16234 24-1089): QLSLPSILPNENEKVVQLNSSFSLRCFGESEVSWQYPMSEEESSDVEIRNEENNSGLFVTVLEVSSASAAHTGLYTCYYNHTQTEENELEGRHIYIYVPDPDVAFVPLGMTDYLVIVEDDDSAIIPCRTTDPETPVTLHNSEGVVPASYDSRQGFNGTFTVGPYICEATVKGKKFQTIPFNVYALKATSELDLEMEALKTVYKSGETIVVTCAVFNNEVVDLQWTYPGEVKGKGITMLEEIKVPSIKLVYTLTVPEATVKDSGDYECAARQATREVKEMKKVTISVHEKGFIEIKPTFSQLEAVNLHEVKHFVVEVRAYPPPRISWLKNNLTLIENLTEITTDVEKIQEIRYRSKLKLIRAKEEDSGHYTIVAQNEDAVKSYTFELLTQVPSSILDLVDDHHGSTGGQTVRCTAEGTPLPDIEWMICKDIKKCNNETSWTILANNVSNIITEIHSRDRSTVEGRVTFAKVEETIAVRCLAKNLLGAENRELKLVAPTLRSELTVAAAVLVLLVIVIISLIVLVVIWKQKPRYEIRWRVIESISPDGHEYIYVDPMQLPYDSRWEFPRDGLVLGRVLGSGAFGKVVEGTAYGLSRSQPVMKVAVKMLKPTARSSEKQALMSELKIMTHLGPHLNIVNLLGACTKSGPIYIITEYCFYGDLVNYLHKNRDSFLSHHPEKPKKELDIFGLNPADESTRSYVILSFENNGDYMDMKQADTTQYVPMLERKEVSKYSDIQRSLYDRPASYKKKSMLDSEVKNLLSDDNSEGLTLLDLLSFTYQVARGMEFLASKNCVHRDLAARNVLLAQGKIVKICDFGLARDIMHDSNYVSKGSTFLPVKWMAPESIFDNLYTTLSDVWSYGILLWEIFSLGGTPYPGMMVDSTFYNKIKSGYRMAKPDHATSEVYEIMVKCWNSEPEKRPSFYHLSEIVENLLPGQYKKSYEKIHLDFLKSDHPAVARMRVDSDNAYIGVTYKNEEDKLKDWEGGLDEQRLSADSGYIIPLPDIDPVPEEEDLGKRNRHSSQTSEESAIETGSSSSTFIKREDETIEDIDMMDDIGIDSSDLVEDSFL
Protocol: as §1, §2
as §3, with “PDGFRα” for “CDK3/cyclinE”, “poly(Glu, Tyr) 4:1, 10 mM MnCl2,” for “histone H1,”, “Filtermat A” for “P30 filtermat”

[7] = system: CaMKII(r); test: CaMKII(r) kinase assay; format: biochemical, rat
Protocol: as §1, §2
as §3, with “CaMKII (r)” for “CDK3/cyclinE (h)”, “40” for “8”, “Hepes” for “MOPS”, “7.4, 5” for “7.0, 0.2”, “CaCl2, 30 μg/ml calmodulin, 30 μM […] (SEQ ID NO:11),” for “EDTA, 0.1 mg/ml histone H1,”

CDK3/cyclinE(h), sequence (Q00526 whole entry): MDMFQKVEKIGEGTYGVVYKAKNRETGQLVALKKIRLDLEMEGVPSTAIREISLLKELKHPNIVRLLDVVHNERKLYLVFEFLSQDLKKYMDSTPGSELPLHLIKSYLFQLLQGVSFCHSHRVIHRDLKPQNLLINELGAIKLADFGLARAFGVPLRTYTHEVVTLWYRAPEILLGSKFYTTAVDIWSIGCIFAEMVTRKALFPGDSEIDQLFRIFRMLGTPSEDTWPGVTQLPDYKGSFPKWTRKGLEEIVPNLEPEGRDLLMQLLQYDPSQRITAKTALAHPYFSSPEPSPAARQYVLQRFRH
CDK3/cyclinE(h), sequence (P24864 whole entry partner): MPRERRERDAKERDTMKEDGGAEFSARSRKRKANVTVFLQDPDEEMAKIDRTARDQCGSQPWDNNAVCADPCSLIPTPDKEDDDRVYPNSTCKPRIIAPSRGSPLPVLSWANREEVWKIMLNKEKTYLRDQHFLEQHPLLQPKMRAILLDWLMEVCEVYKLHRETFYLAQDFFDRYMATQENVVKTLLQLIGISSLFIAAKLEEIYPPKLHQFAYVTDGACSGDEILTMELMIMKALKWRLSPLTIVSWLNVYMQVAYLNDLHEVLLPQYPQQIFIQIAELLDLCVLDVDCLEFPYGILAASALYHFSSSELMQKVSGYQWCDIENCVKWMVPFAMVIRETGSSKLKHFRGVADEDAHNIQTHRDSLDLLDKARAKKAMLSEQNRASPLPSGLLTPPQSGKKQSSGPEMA

**Q.** Which results are given for `CCN1CCC[C@H]1COc1ccc2cc(-c3n[nH]c4ccc(-c5nc(CC(C)(C)C)n[nH]5)cc34)ccc2c1` [CC005, 2-[((2s)-1-ethylpyrrolidin-2-yl)methoxy]-6-{5-[3-(2,2-Dimethylpropyl)(1H-1,2,4,-triazol-5-yl)](1H-indazol-3-yl)}naphthalene]?
**A.** Inhibitory activity (% of control), CDK3/cyclinE(h) [1]: 25 % of control; Inhibitory activity (% of control), Lyn(h) [2]: 2 % of control; Inhibitory activity (% of control), AMPK(r) [3]: 2 % of control; Inhibitory activity (% of control), Rsk3(h) [4]: 4 % of control; Inhibitory activity (% of control), PRAK(h) [5]: 10 % of control; Inhibitory activity (% of control), PDGFRα(h) [6]: 28 % of control; Inhibitory activity (% of control), CaMKII(r) [7]: 4 % of control

**Q.** Which results are given for `COc1ccc2cc(-c3n[nH]c4ccc(-c5n[nH]c(CN6CCOCC6)n5)cc34)ccc2c1` [CC001, 3-(6-Methoxynaphthalen-2-yl)-5-(5-Morpholin-4-Ylmethyl-1H-[1,2,4]Triazol-3-yl)-1H-Indazole]?
**A.** Inhibitory activity (% of control), CDK3/cyclinE(h) [1]: 31 % of control; Inhibitory activity (% of control), Lyn(h) [2]: 5 % of control; Inhibitory activity (% of control), AMPK(r) [3]: 52 % of control; Inhibitory activity (% of control), Rsk3(h) [4]: 4 % of control; Inhibitory activity (% of control), PRAK(h) [5]: 12 % of control; Inhibitory activity (% of control), PDGFRα(h) [6]: 72 % of control; Inhibitory activity (% of control), CaMKII(r) [7]: 64 % of control

**Q.** `CC(C)(C)Cc1nc(-c2ccc3[nH]nc(-c4ccc5cc(OCc6ccccn6)ccc5c4)c3c2)n[nH]1` [CC004, 5-[5-(2,2-Dimethyl-propyl)-1H-[1,2,4]triazol-3-yl]-3-[6-(pyridine-2-ylmethoxy)-naphthalen-2-yl]-1H-indazole] was tested. Which “Inhibitory activity (% of control), CDK3/cyclinE(h)” value [1] did it give?
**A.** 39 % of control

**Q.** And the “Inhibitory activity (% of control), Lyn(h)” value [2]?
**A.** 62 % of control

**Q.** What about the “Inhibitory activity (% of control), AMPK(r)” value [3] of the same molecule?
**A.** 54 % of control

**Q.** And the “Inhibitory activity (% of control), Rsk3(h)” value [4]?
**A.** 43 % of control

**Q.** And the “Inhibitory activity (% of control), PRAK(h)” value [5]?
**A.** 24 % of control

**Q.** What about the “Inhibitory activity (% of control), PDGFRα(h)” value [6] of the same molecule?
**A.** 77 % of control

**Q.** What about the “Inhibitory activity (% of control), CaMKII(r)” value [7] of the same molecule?
**A.** 52 % of control

**Q.** With `O=C(NC1CCCC1)c1cccc(-c2n[nH]c3ccc(-c4nc[nH]n4)cc23)c1` [CC007, 3-(5-(1H-1,2,4-triazol-3-yl)(1H-indazol-3-yl))phenyl-N-cyclopentylcarboxamide, reference compound] as the molecule, how does the “Inhibitory activity (% of control), CDK3/cyclinE(h)” value [1] read?
**A.** 73 % of control

**Q.** And the “Inhibitory activity (% of control), Lyn(h)” value [2]?
**A.** 61 % of control

**Q.** What about the “Inhibitory activity (% of control), AMPK(r)” value [3] of the same molecule?
**A.** 74 % of control

**Q.** And the “Inhibitory activity (% of control), Rsk3(h)” value [4]?
**A.** 38 % of control

**Q.** What about the “Inhibitory activity (% of control), PRAK(h)” value [5] of the same molecule?
**A.** 0 % of control

**Q.** What about the “Inhibitory activity (% of control), PDGFRα(h)” value [6] of the same molecule?
**A.** 108 % of control

**Q.** And the “Inhibitory activity (% of control), CaMKII(r)” value [7]?
**A.** 68 % of control

**Q.** How did the “Inhibitory activity (% of control), CDK3/cyclinE(h)” value [1] turn out when `CC(C)Cc1nc(-c2ccc3[nH]nc(-c4ccc5cc(OCCN6CCCC6)ccc5c4)c3c2)n[nH]1` [CC002, 5-(5-Isobutyl-1H-[1,2,4]Triazol-3-yl)-3-[6-(2-Pyrrolidin-1-yl-Ethoxy)-Naphthalen-2-yl]-1H-Indazole] was run?
**A.** 36 % of control

**Q.** And the “Inhibitory activity (% of control), Lyn(h)” value [2]?
**A.** 2 % of control

**Q.** And the “Inhibitory activity (% of control), AMPK(r)” value [3]?
**A.** 4 % of control

**Q.** What about the “Inhibitory activity (% of control), Rsk3(h)” value [4] of the same molecule?
**A.** 5 % of control

**Q.** What about the “Inhibitory activity (% of control), PRAK(h)” value [5] of the same molecule?
**A.** 6 % of control

**Q.** And the “Inhibitory activity (% of control), PDGFRα(h)” value [6]?
**A.** 71 % of control

**Q.** And the “Inhibitory activity (% of control), CaMKII(r)” value [7]?
**A.** 26 % of control

**Q.** With `Fc1ccc(-c2n[nH]c3ccc(-c4n[nH]c(C5CCCC5)n4)cc23)cc1` [CC006, 5-(5-Cyclopentyl-1H-[1,2,4]triazol-3-yl)-3-(4-fluoro-phenyl)-1H-indazole, reference compound] as the molecule, how does the “Inhibitory activity (% of control), CDK3/cyclinE(h)” value [1] read?
**A.** 15 % of control

**Q.** What about the “Inhibitory activity (% of control), Lyn(h)” value [2] of the same molecule?
**A.** 23 % of control

**Q.** And the “Inhibitory activity (% of control), AMPK(r)” value [3]?
**A.** 74 % of control

**Q.** What about the “Inhibitory activity (% of control), Rsk3(h)” value [4] of the same molecule?
**A.** 39 % of control

**Q.** What about the “Inhibitory activity (% of control), PRAK(h)” value [5] of the same molecule?
**A.** 12 % of control

**Q.** And the “Inhibitory activity (% of control), PDGFRα(h)” value [6]?
**A.** 86 % of control

**Q.** And the “Inhibitory activity (% of control), CaMKII(r)” value [7]?
**A.** 82 % of control
